Experiments:
[1] = tested on: HUV-EC-C cells; assay: HUV-EC-C assay, aFGF (3H-thymidine incorporation); type: cell-based, human; details: Table 2, aFGF-stimulated HUV-EC-C, read-out: HUV-EC-C ATCC aFGF IC50
Experimental: (§1) The following protocol may also be used to measure a compound's activity against PDGF-R, FGF-R, VEGF, aFGF or Flk-1/KDR, all of which are naturally expressed by HUV-EC cells.
(§2) 1. […] After cells have detached from the flask, add an equal volume of assay medium and transfer to a 50 mL sterile centrifuge tube (Fisher Scientific; catalogue no. 05-539-6).
(§3) 1. Make up two-fold drug titrations in separate 96-well plates, generally 50 μM on down to 0 μM. Use the same assay medium as mentioned in day 0, step 2 above. Titrations are made by adding 90 μl/well of drug at 200 μM (4×the final well concentration) to the top well of a particular plate column. Since the stock drug concentration is usually 20 mM in DMSO, the 200 μM drug concentration contains 2% DMSO.
Therefore, diluent made up to 2% DMSO in assay medium (F12K+0.5% fetal bovine serum) is used as diluent for the drug titrations in order to dilute the drug but keep the DMSO concentration constant. Add this diluent to the remaining wells in the column at 60 μl/well. Take 60 μl from the 120 μl of 200 μM drug dilution in the top well of the column and mix with the 60 μl in the second well of the column. Take 60 μl from this well and mix with the 60 μl in the third well of the column, and so on until two-fold titrations are completed. When the next-to-the-last well is mixed, take 60 μl of the 120 μl in this well and discard it. Leave the last well with 60 μl of DMSO/media diluent as a non-drug-containing control. Make 9 columns of titrated drug, enough for triplicate wells each for 1) VEGF (obtained from Pepro Tech Inc., catalogue no. 100-200, 2) endothelial cell growth factor (ECGF) (also known as acidic fibroblast growth factor, or aFGF) (obtained from Boehringer Mannheim Biochemica, catalogue no. 1439 600); or, 3) human PDGF B/B (1276-956, Boehringer Mannheim, Germany) and assay media control. ECGF comes as a preparation with sodium heparin.
2. Transfer 50 μl/well of the drug dilutions to the 96-well assay plates containing the 0.8-1.0×10^4 cells/100 μl/well of the HUV-EC-C cells from day 0 and incubate ~2 h at 37° C., 5% CO2.
3. In triplicate, add 50 μl/well of […] VEGF, 20 ng/mL ECGF, or media control to each drug condition. As with the drugs, the growth factor concentrations are 4×the desired final concentration. Use the assay media from day 0 step 2 to make the concentrations of growth factors. Incubate approximately 24 hours at 37° C., 5% CO2. Each well will have 50 μl drug dilution, 50 μl growth factor or media, and 100 ul cells, =200 ul/well total. Thus the 4×concentrations of drugs and growth factors become 1× once everything has been added to the wells.
1. Add ^3 H-thymidine (Amersham; catalogue no. TRK-686) at 1 μCi/well (10 μl/well of 100 μCi/mL solution made up in RPMI media+10% heat-inactivated fetal bovine serum) and incubate ~24 h at 37° C., 5% CO2. RPMI is obtained from Gibco BRL, catalogue no. 11875-051.
(§4) 1. Thaw plates and harvest with a 96-well plate harvester (Tomtec Harvester 96®) onto filter mats (Wallac; catalogue no. 1205-401); read counts on a Wallac Betaplate™ liquid scintillation counter.
(§5) The IC50 values were measured for several of the compounds of the invention.

[2] = target: T1, src protein kinase (Gallus gallus, UniProt P00523); assay: Biochemical src assay - ELISA; details: Table 2
T1 construct: made in house; host or cells: Schizosaccharomyces pombe (yeast transformed with src, lysate)
Experimental: This assay is used to determine src protein kinase activity measuring phosphorylation of a biotinylated peptide as the readout.
h. […] S. Pombe strain SP200 (h-s leul.32 ura4 ade210) is grown as described and transformations are pRSP expression plasmids are done by the lithium acetate method (Superti-Furga, supra). Cells are grown in the presence of 1 μM thiamine to repress expression from the nmtl promoter or in the absence of thiamine to induce expression.
2. Add 0.08 mL Kinase Reaction Mixture per well (containing 10 μL of 10×Kinase Buffer and 10 μM (final concentration) biotin-[…] per well diluted in water.
(§6) 3. Add 10 μL of compound diluted in water containing 10% DMSO and pre-incubate for 15 minutes at room temperature.
4. Start kinase reaction by adding 10 μL/well of 0.05 mM ATP in water (5 μM ATP final).
as §5

[3] = tested on: HUV-EC-C cells; assay: HUV-EC-C assay, VEGF (3H-thymidine incorporation); type: cell-based, human; details: Table 2, VEGF-stimulated HUV-EC-C, read-out: HUV-EC-C ATCC VEGF IC50
Experimental: as §1, §2, §3
Therefore, diluent made up to 2% DMSO in assay medium (F12K+0.5% fetal bovine serum) is used as diluent for the drug titrations in order to dilute the drug but keep the DMSO concentration constant. Add this diluent to the remaining wells in the column at 60 μl/well. […]
as §4, §5

[4] = target: PDGFr (Homo sapiens, UniProt P09619); assay: PDGF-R ELISA; type: cell-based; design: cells (U1242, obtained from Joseph Schlessinger, NYU); endogenous in cells; host or cells: U1242; details: read-out: PDGFR IC50; Table 2
Experimental: All cell culture media, glutamine, and fetal bovine serum can be purchased from Gibco Life Technologies (Grand Island, N.Y.) unless otherwise specified. […] All cell lines are routinely subcultured twice a week and are negative for mycoplasma as determined by the Mycotect method (Gibco).
For ELISA assays, cells (U1242, obtained from Joseph Schlessinger, NYU) are grown to 80-90% confluency in growth medium (MEM with 10% FBS, NEAA, 1 mM NaPyr and 2 mM GLN) and seeded in 96-well tissue culture plates in 0.5% serum at 25,000 to 30,000 cells per well. After overnight incubation in 0.5% serum-containing medium, cells are changed to serum-free medium and treated with test compound for 2 hr in a 5% CO2, 37° C. incubator. […] Lysates are incubated with shaking for 1 hour at room temperature. The plates are washed with TBST four times and then incubated with polyclonal anti-phosphotyrosine antibody at room temperature for 30 minutes. Excess anti-phosphotyrosine antibody is removed by rinsing the plate with TBST four times. Goat anti-rabbit IgG antibody is added to the ELISA plate for 30 min at room temperature followed by rinsing with TBST four more times. […] Absorbance at 410 nm with a reference wavelength of 630 nm is recorded about 15 to 30 min after ABTS addition.

[5] = target: T2, FLK-1 receptor (Mus musculus, UniProt P35918); assay: FLK-1 ELISA (kinase activity of the FLK-1 receptor in engineered cells); type: cell-based; details: Table 2; read-out: FLK-1R IC50
T2 construct: expressed in transfected cells; host or cells: NIH3T3 C7#3 cells

[6] = target: T3, lck protein kinase (Homo sapiens, UniProt P06239); assay: Biochemical lck assay - ELISA; details: Table 2
T3 construct: made in house; host or cells: Schizosaccharomyces pombe strain SP200 (lysate)
Experimental: This assay is used to determine lck protein kinase activities measuring phosphorylation of GST-.zeta. as the readout.
b. Yeast transformed with lck. […] S. Pombe strain SP200 (h-s leul.32 ura4 ade210) is grown as described and transformations with pRSP expression plasmids are done by the lithium acetate method (Superti-Furga, supra). Cells are grown in the presence of 1 μM thiamine to induce expression.
2. Add 0.08 mL Kinase Reaction Mixture per well (containing 10 μl of 10×Kinase Buffer and 2 μg GST-.zeta. per well diluted with water).
as §6
4. Start kinase reaction by adding 10 μL/well of 0.1 mM ATP in water (10 μM ATP final).
The IC50 values were measured for one of the compounds of the invention.

[7] = target: EGFr (Homo sapiens, UniProt P00533); assay: EGF receptor ELISA; type: cell-based; design: expressed in transfected cells; host or cells: NIH 3T3/C7; details: Table 2; read-out: EGFR IC50
Experimental: EGF Receptor kinase activity in cells genetically engineered to express human EGF-R can be measured as described below:
1. Check seeded cells for contamination using an inverted microscope. Dilute drug stock (10 mg/mL in DMSO) 1:10 in DMEM medium, then transfer 5 μL to a test well for a final drug dilution of 1:200 and a final DMSO concentration of 1%. Control wells receive DMSO alone. Incubate in 5% CO2 at 37° C. for one hour.
5. After two hours incubation with drug, add prepared EGF ligand to cells, 10 μL per well, to yield a final concentration of 25 nM. Control wells receive DMEM alone. Incubate, shaking, at room temperature, for 5 minutes.
12. The maximal phosphotyrosine signal is determined by subtracting the value of the negative controls from the positive controls. The percent inhibition of phosphotyrosine content for extract-containing wells is then calculated, after subtraction of the negative controls.

[8] = target: FAK (Homo sapiens, UniProt Q05397); assay: FAK assay; type: biochemical; details: Table 2
FAK, sequence (Q05397 whole entry, species assumed): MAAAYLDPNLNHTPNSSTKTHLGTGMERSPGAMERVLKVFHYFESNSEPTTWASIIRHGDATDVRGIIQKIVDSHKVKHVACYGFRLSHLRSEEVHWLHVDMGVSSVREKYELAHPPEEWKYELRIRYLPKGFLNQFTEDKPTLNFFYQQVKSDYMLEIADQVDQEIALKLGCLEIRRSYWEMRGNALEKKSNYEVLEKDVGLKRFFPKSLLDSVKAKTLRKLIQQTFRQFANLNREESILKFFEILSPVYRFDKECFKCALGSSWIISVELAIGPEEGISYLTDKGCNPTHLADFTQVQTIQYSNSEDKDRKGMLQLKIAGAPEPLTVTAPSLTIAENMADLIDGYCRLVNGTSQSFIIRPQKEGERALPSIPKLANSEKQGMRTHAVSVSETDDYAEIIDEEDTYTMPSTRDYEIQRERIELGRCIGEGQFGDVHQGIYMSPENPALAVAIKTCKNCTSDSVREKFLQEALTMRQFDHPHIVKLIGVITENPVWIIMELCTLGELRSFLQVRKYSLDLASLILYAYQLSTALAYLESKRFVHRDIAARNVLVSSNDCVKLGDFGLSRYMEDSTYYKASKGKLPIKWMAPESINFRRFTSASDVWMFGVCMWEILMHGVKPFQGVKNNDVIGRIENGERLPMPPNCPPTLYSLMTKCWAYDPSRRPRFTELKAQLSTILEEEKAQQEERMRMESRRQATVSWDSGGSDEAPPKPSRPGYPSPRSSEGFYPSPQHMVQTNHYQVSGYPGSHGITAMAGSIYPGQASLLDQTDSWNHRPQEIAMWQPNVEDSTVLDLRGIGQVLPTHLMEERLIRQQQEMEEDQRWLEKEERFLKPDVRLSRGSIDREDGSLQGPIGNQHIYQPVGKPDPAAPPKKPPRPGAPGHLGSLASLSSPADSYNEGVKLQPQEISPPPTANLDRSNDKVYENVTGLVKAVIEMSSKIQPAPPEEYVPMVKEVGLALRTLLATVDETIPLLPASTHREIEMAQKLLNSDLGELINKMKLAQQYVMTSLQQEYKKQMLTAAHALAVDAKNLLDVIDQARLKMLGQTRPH

T3 sequence (P06239 whole entry): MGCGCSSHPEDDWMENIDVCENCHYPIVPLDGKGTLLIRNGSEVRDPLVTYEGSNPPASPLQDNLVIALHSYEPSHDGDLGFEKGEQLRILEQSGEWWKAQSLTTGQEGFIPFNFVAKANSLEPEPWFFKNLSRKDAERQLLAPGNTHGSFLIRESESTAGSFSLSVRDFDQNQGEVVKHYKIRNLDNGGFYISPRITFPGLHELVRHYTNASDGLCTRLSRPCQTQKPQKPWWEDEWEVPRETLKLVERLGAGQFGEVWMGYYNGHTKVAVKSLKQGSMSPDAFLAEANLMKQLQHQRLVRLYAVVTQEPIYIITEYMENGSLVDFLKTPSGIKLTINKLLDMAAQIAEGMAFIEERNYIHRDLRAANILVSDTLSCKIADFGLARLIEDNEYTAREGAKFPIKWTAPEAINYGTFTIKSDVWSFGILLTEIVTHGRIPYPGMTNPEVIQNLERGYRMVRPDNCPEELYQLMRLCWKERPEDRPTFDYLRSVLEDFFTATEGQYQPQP
PDGFr, sequence (P09619 33-1106): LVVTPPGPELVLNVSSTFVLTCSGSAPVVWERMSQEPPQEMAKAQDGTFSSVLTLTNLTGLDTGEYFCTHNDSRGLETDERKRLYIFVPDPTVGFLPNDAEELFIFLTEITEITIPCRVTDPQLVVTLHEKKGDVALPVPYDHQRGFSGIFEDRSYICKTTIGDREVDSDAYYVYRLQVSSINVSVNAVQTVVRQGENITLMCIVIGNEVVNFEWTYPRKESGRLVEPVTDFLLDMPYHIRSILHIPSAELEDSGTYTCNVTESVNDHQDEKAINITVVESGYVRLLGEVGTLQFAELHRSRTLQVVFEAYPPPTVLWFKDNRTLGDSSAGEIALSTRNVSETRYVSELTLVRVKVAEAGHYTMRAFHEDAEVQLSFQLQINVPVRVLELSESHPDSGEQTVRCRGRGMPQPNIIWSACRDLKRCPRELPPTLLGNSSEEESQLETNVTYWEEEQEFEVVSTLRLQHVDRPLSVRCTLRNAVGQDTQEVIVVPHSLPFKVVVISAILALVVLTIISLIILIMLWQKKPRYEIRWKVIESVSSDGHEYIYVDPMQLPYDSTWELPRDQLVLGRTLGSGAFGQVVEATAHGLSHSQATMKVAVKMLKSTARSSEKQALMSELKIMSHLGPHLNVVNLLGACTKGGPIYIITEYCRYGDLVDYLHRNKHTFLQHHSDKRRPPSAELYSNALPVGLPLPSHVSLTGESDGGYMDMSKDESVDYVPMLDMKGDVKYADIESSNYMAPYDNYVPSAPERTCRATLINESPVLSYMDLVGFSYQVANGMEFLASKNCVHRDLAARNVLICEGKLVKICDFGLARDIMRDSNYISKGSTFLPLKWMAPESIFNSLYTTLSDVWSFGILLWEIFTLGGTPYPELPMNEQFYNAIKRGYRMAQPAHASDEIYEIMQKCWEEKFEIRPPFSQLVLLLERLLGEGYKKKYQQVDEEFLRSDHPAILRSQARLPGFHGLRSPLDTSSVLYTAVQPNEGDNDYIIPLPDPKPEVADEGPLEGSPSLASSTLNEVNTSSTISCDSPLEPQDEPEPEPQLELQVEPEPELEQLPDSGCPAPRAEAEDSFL
EGFr, sequence (P00533 25-1210): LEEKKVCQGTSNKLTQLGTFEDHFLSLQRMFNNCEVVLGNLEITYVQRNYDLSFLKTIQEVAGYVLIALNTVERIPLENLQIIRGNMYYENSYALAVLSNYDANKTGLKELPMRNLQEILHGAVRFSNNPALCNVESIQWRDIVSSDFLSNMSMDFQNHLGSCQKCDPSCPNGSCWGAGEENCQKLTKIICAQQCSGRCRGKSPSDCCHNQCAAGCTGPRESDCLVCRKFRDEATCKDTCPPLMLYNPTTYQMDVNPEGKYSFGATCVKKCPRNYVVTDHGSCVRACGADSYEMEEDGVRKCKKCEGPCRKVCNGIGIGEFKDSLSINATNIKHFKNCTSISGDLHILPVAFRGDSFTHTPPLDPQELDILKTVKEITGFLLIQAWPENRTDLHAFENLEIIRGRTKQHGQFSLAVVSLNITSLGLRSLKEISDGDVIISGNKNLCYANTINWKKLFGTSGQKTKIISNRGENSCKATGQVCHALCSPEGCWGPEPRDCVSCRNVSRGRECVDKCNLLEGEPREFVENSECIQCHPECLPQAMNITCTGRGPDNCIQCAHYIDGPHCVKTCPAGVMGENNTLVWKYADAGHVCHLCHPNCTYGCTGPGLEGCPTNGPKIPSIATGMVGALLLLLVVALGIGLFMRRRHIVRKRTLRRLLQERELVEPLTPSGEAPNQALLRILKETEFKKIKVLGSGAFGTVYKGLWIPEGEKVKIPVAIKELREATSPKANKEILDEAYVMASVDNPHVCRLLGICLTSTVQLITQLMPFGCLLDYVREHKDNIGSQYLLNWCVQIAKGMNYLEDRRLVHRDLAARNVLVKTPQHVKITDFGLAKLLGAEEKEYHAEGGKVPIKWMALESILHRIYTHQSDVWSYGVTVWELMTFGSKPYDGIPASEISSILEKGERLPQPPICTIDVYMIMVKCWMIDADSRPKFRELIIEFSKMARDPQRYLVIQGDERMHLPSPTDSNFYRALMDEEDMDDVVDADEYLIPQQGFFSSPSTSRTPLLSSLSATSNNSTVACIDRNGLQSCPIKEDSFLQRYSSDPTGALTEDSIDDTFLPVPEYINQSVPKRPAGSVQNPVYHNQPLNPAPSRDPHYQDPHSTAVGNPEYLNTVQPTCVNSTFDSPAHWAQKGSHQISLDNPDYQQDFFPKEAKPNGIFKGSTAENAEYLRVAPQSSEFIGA

SMILES: NS(=O)(=O)c1ccc2c(c1)C(=Cc1cc3c([nH]1)CCCC3)C(=O)N2
- IC50 ([1]; Homo sapiens): 2400 nM
- IC50 [1]: 3300 nM
- IC50 [2]: 800 nM
- IC50 ([3]; Homo sapiens): 650 nM
- IC50 [3]: 1070 nM
- IC50 [4]: 1000 nM
- IC50 [5]: > 100000 nM
- IC50 [6]: 700 nM
- IC50 [7]: > 100000 nM
- IC50 [8]: > 10000 nM

From patent US6114371A, “3-(cyclohexanoheteroarylidenyl)-2-indolinone protein tyrosine kinase inhibitors” (Sugen, Inc., priority 1998, dated 2000)
